# From patent US11820766B2, “Monoacylglycerol lipase modulators” (Janssen Pharmaceutica NV, priority 2018, dated 2023)
# Target: T1, human MGL from HeLa cells (Homo sapiens, UniProt Q99685)
# T1 construct: combining endogenously expressed MGL from HeLa cells with test compounds; endogenous in cells; host or cells: HeLa cells / cell homogenates
# T1 sequence (Q99685 1-303): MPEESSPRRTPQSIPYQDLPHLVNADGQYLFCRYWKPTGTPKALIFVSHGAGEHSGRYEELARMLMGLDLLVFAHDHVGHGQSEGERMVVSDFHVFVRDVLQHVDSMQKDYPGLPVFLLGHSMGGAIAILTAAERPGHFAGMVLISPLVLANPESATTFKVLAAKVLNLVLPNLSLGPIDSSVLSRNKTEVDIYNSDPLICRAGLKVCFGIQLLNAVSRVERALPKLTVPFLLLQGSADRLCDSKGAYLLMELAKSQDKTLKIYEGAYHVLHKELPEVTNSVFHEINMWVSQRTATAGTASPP
# Test: In vitro MGL activity assay: [glycerol-1,3-3H]-oleyl glycerol cleavage by MGL from HeLa cells
# Assay type: biochemical
# Conditions: 300 nM [Glycerol-1,3-3H]-oleyl glycerol, one hour incubation
# Excerpt: MGL is the predominant hydrolase in HeLa cells/cell homogenates.
row,SMILES,IC50 [nM]
1,"C[C@H]1c2nn(C)c(-c3cc(F)cc(C(F)(F)F)c3)c2CCN1C(=O)c1ccc2nccnc2c1 [Example 184, (S)-(3-(3-Fluoro-5-(trifluoromethyl)phenyl)-2,7-dimethyl-2,4,5,7-tetrahydro-6H-pyrazolo[3,4-c]pyridin-6-yl)(quinoxalin-6-yl)methanone]",136
2,"COc1ccc(-c2c3c(nn2C)[C@H](C)N(C(=O)c2ccc4nccnc4c2)CC3)cc1F [Example 185, (S)-(3-(3-Fluoro-4-methoxyphenyl)-2,7-dimethyl-2,4,5,7-tetrahydro-6H-pyrazolo[3,4-c]pyridin-6-yl)(quinoxalin-6-yl)methanone]",386
3,"COc1cc(F)cc(-c2c3c(nn2C)[C@H](C)N(C(=O)c2ccc4nccnc4c2)CC3)c1 [Example 186, (S)-(3-(3-Fluoro-5-methoxyphenyl)-2,7-dimethyl-2,4,5,7-tetrahydro-6H-pyrazolo[3,4-c]pyridin-6-yl)(quinoxalin-6-yl)methanone]",46
4,"COc1cc(F)cc(-c2c3c(nn2C)[C@H](C)N(C(=O)c2cc4nccnc4cc2F)CC3)c1 [Example 187, (S)-(3-(3-Fluoro-5-methoxyphenyl)-2,7-dimethyl-2,4,5,7-tetrahydro-6H-pyrazolo[3,4-c]pyridin-6-yl)(7-fluoroquinoxalin-6-yl)methanone]",41.7
5,"COc1ccc(-c2c3c(nn2C)[C@H](C)N(C(=O)c2ccc4nccnc4c2)CC3)cc1Cl [Example 188, (S)-(3-(3-Chloro-4-methoxyphenyl)-2,7-dimethyl-2,4,5,7-tetrahydro-6H-pyrazolo[3,4-c]pyridin-6-yl)(quinoxalin-6-yl)methanone]",105
6,"C[C@H]1c2nn(C)c(-c3ccc(OC(F)F)c(F)c3)c2CCN1C(=O)c1ccc2nccnc2c1 [Example 189, (S)-(3-(4-(Difluoromethoxy)-3-fluorophenyl)-2,7-dimethyl-2,4,5,7-tetrahydro-6H-pyrazolo[3,4-c]pyridin-6-yl)(quinoxalin-6-yl)methanone]",102
7,"Cc1c(F)cc(-c2c3c(nn2C)[C@H](C)N(C(=O)c2ccc4nccnc4c2)CC3)cc1F [Example 190, (S)-(3-(3,5-Difluoro-4-methylphenyl)-2,7-dimethyl-2,4,5,7-tetrahydro-6H-pyrazolo[3,4-c]pyridin-6-yl)(quinoxalin-6-yl)methanone]",133
8,"COc1cc(Cl)cc(C(=O)N2CCc3c(nn(C)c3-c3cc(F)c(F)c(F)c3)[C@@H]2C)c1 [Example 192, (S)-(3-Chloro-5-methoxyphenyl)(2,7-dimethyl-3-(3,4,5-trifluorophenyl)-2,4,5,7-tetrahydro-6H-pyrazolo[3,4-c]pyridin-6-yl)methanone]",6.78
9,"C[C@H]1c2nn(C)c(-c3cc(F)c(F)c(F)c3)c2CCN1C(=O)c1cc(F)ccc1-n1cccn1 [Example 193, (S)-(2,7-Dimethyl-3-(3,4,5-trifluorophenyl)-2,4,5,7-tetrahydro-6H-pyrazolo[3,4-c]pyridin-6-yl)(5-fluoro-2-(1H-pyrazol-1-yl)phenyl)methanone]",75.5
10,"C[C@H]1c2nn(C)c(-c3cc(F)c(F)c(F)c3)c2CCN1C(=O)c1cccc(F)c1-n1nccn1 [Example 195, (S)-(2,7-Dimethyl-3-(3,4,5-trifluorophenyl)-2,4,5,7-tetrahydro-6H-pyrazolo[3,4-c]pyridin-6-yl)(3-fluoro-2-(2H-1,2,3-triazol-2-yl)phenyl)methanone]",309
11,"C[C@H]1c2nn(C)c(-c3cc(F)c(F)c(F)c3)c2CCN1C(=O)c1ccc(F)cc1-n1nccn1 [Example 196, (S)-(2,7-Dimethyl-3-(3,4,5-trifluorophenyl)-2,4,5,7-tetrahydro-6H-pyrazolo[3,4-c]pyridin-6-yl)(4-fluoro-2-(2H-1,2,3-triazol-2-yl)phenyl)methanone]",307
12,"Cc1ccc(-n2nccn2)c(C(=O)N2CCc3c(nn(C)c3-c3cc(F)c(F)c(F)c3)[C@@H]2C)c1 [Example 197, (S)-(2,7-Dimethyl-3-(3,4,5-trifluorophenyl)-2,4,5,7-tetrahydro-6H-pyrazolo[3,4-c]pyridin-6-yl)(5-methyl-2-(2H-1,2,3-triazol-2-yl)phenyl)methanone]",60
13,"COc1cc(C(=O)N2CCc3c(nn(C)c3-c3cc(F)c(F)c(F)c3)[C@@H]2C)nn1C [Example 200, (S)-(2,7-Dimethyl-3-(3,4,5-trifluorophenyl)-2,4,5,7-tetrahydro-6H-pyrazolo[3,4-c]pyridin-6-yl)(5-methoxy-1-methyl-1H-pyrazol-3-yl)methanone]",295
14,"C[C@H]1c2nn(C)c(-c3cc(F)c(F)c(F)c3)c2CCN1C(=O)c1cnn(C)c1C1CC1 [Example 201, (S)-(5-Cyclopropyl-1-methyl-1H-pyrazol-4-yl)(2,7-dimethyl-3-(3,4,5-trifluorophenyl)-2,4,5,7-tetrahydro-6H-pyrazolo[3,4-c]pyridin-6-yl)methanone]",6.26
15,"CCc1nc(C(=O)N2CCc3c(nn(C)c3-c3cc(F)c(F)c(F)c3)[C@@H]2C)nn1-c1ccccc1 [Example 202, (S)-(2,7-Dimethyl-3-(3,4,5-trifluorophenyl)-2,4,5,7-tetrahydro-6H-pyrazolo[3,4-c]pyridin-6-yl)(5-ethyl-1-phenyl-1H-1,2,4-triazol-3-yl)methanone]",7.39
16,"C[C@H]1c2nn(C)c(-c3cc(F)c(F)c(F)c3)c2CCN1C(=O)c1ccc2c(c1)N(C)C(=O)CO2 [Example 204, (S)-6-(2,7-Dimethyl-3-(3,4,5-trifluorophenyl)-4,5,6,7-tetrahydro-2H-pyrazolo[3,4-c]pyridine-6-carbonyl)-4-methyl-2H-benzo[b][1,4]oxazin-3(4H)-one]",17.7
17,"C[C@H]1c2nn(C)c(-c3cc(F)c(F)c(F)c3)c2CCN1C(=O)c1cccc2c1ccn2C [Example 207, (S)-(2,7-dimethyl-3-(3,4,5-trifluorophenyl)-2,4,5,7-tetrahydro-6H-pyrazolo[3,4-c]pyridin-6-yl)(1-methyl-1H-indol-4-yl)methanone]",0.22
18,"C[C@H]1c2nn(C)c(-c3cc(F)c(F)c(F)c3)c2CCN1C(=O)c1cccc2cn[nH]c12 [Example 208, (S)-(2,7-Dimethyl-3-(3,4,5-trifluorophenyl)-2,4,5,7-tetrahydro-6H-pyrazolo[3,4-c]pyridin-6-yl)(1H-indazol-7-yl)methanone]",34.2
19,"Cc1cc(C(=O)N2CCc3c(nn(C)c3-c3cc(F)c(F)c(F)c3)[C@@H]2C)cc2cn[nH]c12 [Example 210, (S)-(2,7-Dimethyl-3-(3,4,5-trifluorophenyl)-2,4,5,7-tetrahydro-6H-pyrazolo[3,4-c]pyridin-6-yl)(7-methyl-1H-indazol-5-yl)methanone]",0.6
20,"C[C@H]1c2nn(C)c(-c3cc(F)c(F)c(F)c3)c2CCN1C(=O)c1ccc2c(cnn2C)c1 [Example 211, (S)-(2,7-Dimethyl-3-(3,4,5-trifluorophenyl)-2,4,5,7-tetrahydro-6H-pyrazolo[3,4-c]pyridin-6-yl)(1-methyl-1H-indazol-5-yl)methanone]",72.2

# More lines, now with the values ahead:
row,IC50 [nM],SMILES
1,2.56,"COc1cccc(C(=O)N2CCc3c(nn(C)c3-c3cc(F)c(F)c(F)c3)[C@@H]2C)c1Cl [Example 191, (S)-(2-Chloro-3-methoxyphenyl)(2,7-dimethyl-3-(3,4,5-trifluorophenyl)-2,4,5,7-tetrahydro-6H-pyrazolo[3,4-c]pyridin-6-yl)methanone]"
2,14.8,"C[C@H]1c2nn(C)c(-c3cc(F)c(F)c(F)c3)c2CCN1C(=O)c1cccc(-n2cncn2)c1 [Example 194, (S)-(3-(1H-1,2,4-Triazol-1-yl)phenyl)(2,7-dimethyl-3-(3,4,5-trifluorophenyl)-2,4,5,7-tetrahydro-6H-pyrazolo[3,4-c]pyridin-6-yl)methanone]"
3,14,"C[C@H]1c2nn(C)c(-c3cc(F)c(F)c(F)c3)c2CCN1C(=O)c1cnn(C)c1C(F)(F)F [Example 198, (S)-(2,7-Dimethyl-3-(3,4,5-trifluorophenyl)-2,4,5,7-tetrahydro-6H-pyrazolo[3,4-c]pyridin-6-yl)(1-methyl-5-(trifluoromethyl)-1H-pyrazol-4-yl)methanone]"
4,172,"C[C@H]1c2nn(C)c(-c3cc(F)c(F)c(F)c3)c2CCN1C(=O)c1cnn(C(C)(C)C)c1C(F)(F)F [Example 199, (S)-(1-(tert-Butyl)-5-(trifluoromethyl)-1H-pyrazol-4-yl)(2,7-dimethyl-3-(3,4,5-trifluorophenyl)-2,4,5,7-tetrahydro-6H-pyrazolo[3,4-c]pyridin-6-yl)methanone]"
5,67.5,"COc1cncc(C(=O)N2CCc3c(nn(C)c3-c3cc(F)c(F)c(F)c3)[C@@H]2C)c1 [Example 203, (S)-(2,7-Dimethyl-3-(3,4,5-trifluorophenyl)-2,4,5,7-tetrahydro-6H-pyrazolo[3,4-c]pyridin-6-yl)(5-methoxypyridin-3-yl)methanone]"
6,33.3,"C[C@H]1c2nn(C)c(-c3cc(F)c(F)c(F)c3)c2CCN1C(=O)c1cccc2cc[nH]c12 [Example 205, (S)-(2,7-Dimethyl-3-(3,4,5-trifluorophenyl)-2,4,5,7-tetrahydro-6H-pyrazolo[3,4-c]pyridin-6-yl)(1H-indol-7-yl)methanone]"
7,4.91,"C[C@H]1c2nn(C)c(-c3cc(F)c(F)c(F)c3)c2CCN1C(=O)c1cccc2ccn(C)c12 [Example 206, (S)-(2,7-Dimethyl-3-(3,4,5-trifluorophenyl)-2,4,5,7-tetrahydro-6H-pyrazolo[3,4-c]pyridin-6-yl)(1-methyl-1H-indol-7-yl)methanone]"
8,11.1,"C[C@H]1c2nn(C)c(-c3cc(F)c(F)c(F)c3)c2CCN1C(=O)c1cccc2cnn(C)c12 [Example 209, (S)-(2,7-Dimethyl-3-(3,4,5-trifluorophenyl)-2,4,5,7-tetrahydro-6H-pyrazolo[3,4-c]pyridin-6-yl)(1-methyl-1H-indazol-7-yl)methanone]"
